Values after ≈ are worked out from the molar mass of the structure shown.

In series [1] the test system is Staphylococcus aureus (OC8525), a methicillin-resistant strain (MRSA). Briefly: In vivo efficacy in a mouse systemic infection model. The conditions noted are these: mouse MRSA systemic infection. Put shortly:
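Female Swiss Webster mice infected i.p. with ~5×10^5 CFU MRSA OC8525 in 7% mucin; compound in D5W given i.v. or p.o. 1 h later, 8 mice/group. Survival over 3 days; ED50 from survival curves, normalized to parent-acid content, or % survival at a single dose.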

The nature of another series: Rat pharmacokinetics. The series is classed as in vivo, Sprague-Dawley rats. The following applies: Sprague-Dawley, iv, male rats, 2 mg/kg i.v., analyte: the administered compound itself. How it is done: Male Sprague-Dawley rats (n=4) were fasted overnight, then dosed intravenously (IV) with a 1 mg/mL solution of a compound of the present invention (prodrug) or parent (compound of formula (M)) in 20% hydroxypropyl-β-cyclodextrin at 2 mg/kg. Blood samples were collected up to 24 hours post dose into tubes containing an anticoagulant. Blood samples were centrifuged for cell removal, and 100 μL plasma was transferred to a clean vial, placed on dry ice, and stored in a −70° C. freezer prior to analysis.
Plasma samples were prepared as follows. Two volumes of acetonitrile containing formic acid and internal standard were added to one volume of plasma to precipitate proteins. Samples were centrifuged (3000 g for 5 min) and supernatant removed for analysis by LC-MS-MS. Calibration standards were prepared by adding appropriate volumes of stock solution directly into plasma and treated identically to collected plasma samples. LC-MS-MS analysis was performed utilizing multiple reaction monitoring for detection of characteristic ions for the test compounds (pro-drugs), parent (compound of formula (M)) and internal standard.
Plasma concentrations were measured as described above to determine a concentration vs time profile. The area under the plasma concentration vs time curve (AUC) was calculated using the linear trapezoidal method. Fitting of the data to obtain pharmacokinetic parameters was carried out using non-compartmental analysis, with results as listed in Table 14, below. The term “NA” means the data was not available.

A short description of series [2]: Solubility of parent compound in citrate buffer (HPLC). The series is classed as physicochemical. The following applies: aqueous buffer, thermodynamic from solid, 50 mM citrate buffer. The protocol:
The solubility of the parent compound (the compound of formula (M), also known as ((E)-7-(3-(2-amino-1-fluoroethylidene)piperidin-1-yl)-1-cyclopropyl-6-fluoro-8-methoxy-4-oxo-1,4-dihydroquinoline-3-carboxylic acid), was determined in a separate experiment, in which solutions containing 50 mM citrate buffer at various pH were added to the solid compound at various target concentrations. The samples were mixed overnight and the pH measured with a Beckman φ360 pH/Temp/mV Meter. The samples were then filtered using nylon centrifuge filters. The supernatant was diluted and the concentration was measured with HPLC.

On to `COc1c(N2CCC/C(=C(\F)CN)C2)c(F)cc2c(=O)c(C(=O)O)cn(C3CC3)c12` [Compound (M), (E)-7-(3-(2-amino-1-fluoroethylidene)piperidin-1-yl)-1-cyclopropyl-6-fluoro-8-methoxy-4-oxo-1,4-dihydroquinoline-3-carboxylic acid], for which the median effective dose (ED50) in series [1] (administered i.v.) was 0.71 mg/kg/day; in series [1] (administered p.o.), 10.6 mg/kg/day. This compound yielded an AUC in “Rat pharmacokinetics” (in vivo) of 718 ng·h/mL. The peak level in the series “Rat pharmacokinetics” (in vivo) (Cmax) was 805 ng/mL. This compound showed a clearance in the series “Rat pharmacokinetics” (in vivo) of 47.1 mL/min/kg. Also, in “Rat pharmacokinetics” (in vivo, read-out: Vss), the Vd was found to be 6.08 L/kg. Moreover, the half-life in the series “Rat pharmacokinetics” (plasma) was 1.5 h. The solubility in series [2] (pH 4.11, mixed overnight) is 140 µg/mL (≈ 334 µM); in series [2] (pH 6.75, mixed overnight), 40 µg/mL (≈ 95.4 µM).

For the origin of these results see patent US20110172193A1, “PRO-DRUGS OF (E)-7-(3-(2-AMINO-1-FLUOROETHYLIDENE)PIPERIDIN-1-YL)-1-CYCLOPROPYL-6-FLUORO-8-METHOXY-4-OXO-1,4-DIHYDROQUINOLINE-3-CARBOXYLIC ACID” (priority 2010, published 2011).
